Measured values taken from patent publication US20220273628A1, “EFFECTS OF LYSERGIC ACID DIETHYLAMIDE (LSD) AND OF LSD ANALOGS TO ASSIST PSY[…] G[…] DISORDER OR OTHER ANXIETY NOT RELATED TO LIFE-T[…]” (Universitätsspital Basel, priority 2021, published 2022).

What was measured:
[1] = drinking solution (water/alcohol) in dark glass vials; cited from earlier work
healthy volunteers = settings: cited from earlier work
[2] = system: patients with life-threatening illness and related anxiety; settings: cited from earlier work
[3] = system: patients with anxiety disorder without somatic illness; test: Randomized, double-blind, placebo-controlled phase II cross-over study of LSD: ratings of anxiety, depression and psychological distress; type: in vivo, human
Experimental: Specifically, in patients with generalized anxiety disorder, LSD or placebo was administered in double-blind manner in two sessions separated by 6 weeks and anxiety, depression and psychological distress were assessed between sessions, 2, 8, and 16 weeks after the second session. Then patients who received LSD crossed over to placebo and vice versa.
The examples study used a double-blind cross-over design with two treatment sequences each lasting 24 weeks (LSD vs. placebo-assisted psychotherapy) and separated by a […] between-sequence period. Order was counter-balanced and random. Each participant served as its own control over the 52-weeks total study duration. Treatment effects are also compared between subjects for the first 24 week study period before the cross-over.
Each of the four LSD/Placebo sessions lasted 12 hours from 8 AM to 8 PM. Sessions took place in a quiet room at the Ambulatory Study Center of the University Hospital Basel (Basel center) or in the private practice office of Dr. P. Gasser (Solothurn center). At the beginning of the session, current mood and mental state were discussed and a urine drug screen was taken and any AEs since the last visit were recorded. Any open questions or concerns were addressed by the investigator. The participants were advised to lie in a bed or sit comfortably on a chair. Other than going to the bathroom, the participants remained in the treatment room for the entire 12-hour experimental session and were supervised constantly up to 8-12 hours after LSD/placebo administration depending on the participant's response and as needed. The subjective effects of LSD at the dose used in this study were expected to last 8-12 hours (Gasser et al., 2014; Holze et al., 2021; Schmid et al., 2015). […] During the LSD/placebo effect, the participants were instructed to focus their awareness inward. Subjects were encouraged to wear eye shades during the first hours (or the light was dimmed) as well as to listen to music and discussions/talking much with the investigator were discouraged. Subjects were allowed to remain mostly undisturbed with brief physical contacts every two hours when heart rate and blood pressure were measured. At the end of the sessions, 10-12 hours after LSD/placebo administration, the acute subjective peak effects were retrospectively rated by the participants using the 5D-ASC, SCQ, AMRS, and VASs and the experience was discussed. Ten-twelve hours after LSD/placebo administration the participants were allowed to return to their home with company and supervision provided by the partner, a relative, or a friend. If supervision was not available or if effects persisted, the night was spent at the study site.
The STAI is a widely used self-report instrument for assessing anxiety in adults. It includes separate measures of state and trait anxiety (Spielberger et al., 1983). The STAI evaluates the essential qualities of feelings of apprehension, tension, nervousness, and worry. The STAI differentiates between the temporary condition of state anxiety and the more general and long-standing quality of trait anxiety. The STAI state anxiety subscale asks for feelings at the moment of filling out the questionnaire, and the STAI trait anxiety subscale ask subjects to indicate how they generally view themselves. For both subscales, scores from 20 to 39 represent mild anxiety, and scores from 40 to 59 indicated moderate anxiety, whereas scores from 60 to 80 indicated severe anxiety. Both the state and trait STAI are commonly used as outcome measures in studies in patients with anxiety disorder (Fisher et al., 1999; Laakmann et al., 1998). A global STAI score can be derived by adding up the state and trait anxiety scale scores (range: 40-160 points). Similar to the pilot study both STAI scale scores were used to determine study inclusion at the screening visit (Gasser et al., 2014; Gasser et al., 2015). […]

[4] = within-subjects, after two LSD sessions
[5] = between-subjects, after the first session, p=0.04
[6] = between-subjects, week 10 (2 weeks after the second dose), p=0.002
[7] = between-subjects, weeks 16 and 24, did not reach statistical significance
[8] = within-subjects, 2 weeks after the second administration, p=0.003

Question: Which “content-uniformity and stability of the formulation” value [1] does the source give for `CCN(CC)C(=O)[C@@H]1C=C2c3cccc4[nH]cc(c34)C[C@H]2N(C)C1` [LSD, lysergic acid diethylamide] here?
Answer: The value was “stability of the formulation throughout the entire study period was documented”.

Question: What about the “optimism and trait openness compared with placebo” value (healthy volunteers; 75 μg intravenously, at two weeks) of the same molecule?
Answer: Its value is “increased”.

Question: And the “blood pressure and heart rate” value (healthy volunteers; 40-80 μg intravenously, 10 healthy volunteers)?
Answer: Its value is “slightly elevated”.

Question: What about the “STAI anxiety compared with baseline” value ([2]; 2 months after the two LSD sessions, 200 μg per os) of the same molecule?
Answer: Its value is “significant decrease”.

Question: And the “mild affect lability, share of LSD sessions” value ([2]; in vivo)?
Answer: The value was 14%.

Question: And the “mild gait disturbance, share of LSD sessions” value ([2]; in vivo)?
Answer: The value was 32%.

Question: What about the “mild-to-moderate emotional distress, share of LSD sessions” value ([2]; in vivo) of the same molecule?
Answer: The value was 36%.

Question: What about the “moderate anxiety, share of LSD sessions” value ([2]; in vivo) of the same molecule?
Answer: Its value is 23%.

Question: What about the “moderately feeling cold, share of LSD sessions” value ([2]; in vivo) of the same molecule?
Answer: The value was 45%.

Question: And the “number of migraine attacks” value ([2]; two migraine patients)?
Answer: The value was “markedly reduced”.

Question: And the “STAI state anxiety score after LSD (mean±SD)” value [2, 4]?
Answer: The value was 41.5±9.7.

Question: And the “STAI trait anxiety score after LSD (mean±SD)” value [2, 4]?
Answer: Its value is 45.3±10.3.

Question: What about the “STAI state anxiety score before LSD (mean±SD)” value ([2]; within-subjects, baseline) of the same molecule?
Answer: The value was 53.1±13.5.

Question: And the “STAI trait anxiety score before LSD (mean±SD)” value ([2]; within-subjects, baseline)?
Answer: Its value is 53.3±11.3.

Question: What about the “decrease in STAI trait anxiety score (mean±SD)” value ([2]; within-subjects) of the same molecule?
Answer: Its value is 8.0±7.7 points.

Question: What about the “reduction in STAI state anxiety score (mean±SD)” value ([2]; within-subjects) of the same molecule?
Answer: The value was 11.6±9.5 points.

Question: And the “STAI-S, STAI-T, STAI-G, HDRS, BDI and SCL-90 Global scores compared with baseline” value ([3]; LSD condition only, 19 patients, 2 weeks after the second treatment session, p=0.006, 0.01, 0.03, 0.02, 0.03)?
Answer: The value was “reduced scores on all outcome measures significantly”.

Question: And the “STAI-S ratings compared with placebo” value ([3]; between-subjects, first period, week 10 (2 weeks after the second dose), 200 μg per os, p=0.008)?
Answer: The value was “significantly reduced”.

Question: What about the “STAI-S ratings compared with placebo” value ([3]; between-subjects, after the first session, p=0.03) of the same molecule?
Answer: The value was “significantly reduced”.

Question: And the “HDRS scores compared with placebo” value [3, 5]?
Answer: Its value is “already reduced scores”.

Question: What about the “STAI-G ratings compared with placebo” value [3, 5] of the same molecule?
Answer: The value was “significantly reduced”.

Question: What about the “STAI-T ratings compared with placebo” value ([3]; between-subjects, week 10 (2 weeks after the second dose), p=0.001) of the same molecule?
Answer: Its value is “significantly reduced”.

Question: And the “HDRS scores compared with placebo” value [3, 6]?
Answer: The value was “significantly reduced”.

Question: What about the “STAI-G ratings compared with placebo” value [3, 6] of the same molecule?
Answer: Its value is “significantly reduced”.

Question: What about the “SCL-90 Global scores compared with placebo” value ([3]; between-subjects, week 10, p=0.004) of the same molecule?
Answer: Its value is “significantly reduced”.

Question: What about the “BDI scores compared with placebo” value ([3]; between-subjects, week 10, p=0.02) of the same molecule?
Answer: Its value is “significantly reduced”.

Question: What about the “SCL-90 Global compared with placebo” value ([3]; between-subjects, week 16 and week 24, did not reach statistical significance) of the same molecule?
Answer: The value was “remained reduced”.

Question: What about the “STAI-S ratings compared with placebo” value ([3]; between-subjects, weeks 16 and 24 (8 and 16 weeks after the second dose), did not reach statistical significance) of the same molecule?
Answer: The value was “continued to be reduced”.

Question: And the “STAI-G ratings compared with placebo” value [3, 7]?
Answer: Its value is “continued to be reduced”.

Question: And the “STAI-T ratings compared with placebo” value [3, 7]?
Answer: The value was “continued to be reduced”.

Question: And the “STAI-S symptom score, difference from baseline, compared with placebo” value ([3]; within-subjects (19 patients), 2 weeks after the second administration, p=0.01)?
Answer: Its value is “significantly reduced”.

Question: What about the “BDI symptom score, difference from baseline, compared with placebo” value ([3]; within-subjects, 2 weeks after the second administration, p=0.002) of the same molecule?
Answer: The value was “significantly reduced”.

Question: What about the “STAI-G symptom score, difference from baseline, compared with placebo” value [3, 8] of the same molecule?
Answer: The value was “significantly reduced”.

Question: What about the “STAI-T symptom score, difference from baseline, compared with placebo” value [3, 8] of the same molecule?
Answer: Its value is “significantly reduced”.

Question: And the “SCL-90 Global symptom score, difference from baseline, compared with placebo” value ([3]; within-subjects, 2 weeks after the second administration, p=0.004)?
Answer: Its value is “significantly reduced”.

Question: And the “HDRS symptom score, difference from baseline, compared with placebo” value ([3]; within-subjects, 2 weeks after the second administration, p=0.03)?
Answer: Its value is “significantly reduced”.
